Data published in publication PMC3781598 (Pharmaceutical research, 2013).
Values joined by “and” are separate entries in the source; they are usually repeats but may differ in a detail not shown here. Equal entries are not always repeated. “Also recorded” adds a separate entry of the source. Where two headings read alike, the source gives them in different places.

Legend:
human CYP2A6 [1] = biological target: T1, human CYP2A6 (Homo sapiens, UniProt P11509); test: Spectral ligand binding assay; settings: for Kd 2A6 / Kd: ≥ = minimal Kd value; for Spectral shift type 2A6: UV/Vis difference spectra
T1 sequence (P11509 with tags, fused parts or gaps limits assumed): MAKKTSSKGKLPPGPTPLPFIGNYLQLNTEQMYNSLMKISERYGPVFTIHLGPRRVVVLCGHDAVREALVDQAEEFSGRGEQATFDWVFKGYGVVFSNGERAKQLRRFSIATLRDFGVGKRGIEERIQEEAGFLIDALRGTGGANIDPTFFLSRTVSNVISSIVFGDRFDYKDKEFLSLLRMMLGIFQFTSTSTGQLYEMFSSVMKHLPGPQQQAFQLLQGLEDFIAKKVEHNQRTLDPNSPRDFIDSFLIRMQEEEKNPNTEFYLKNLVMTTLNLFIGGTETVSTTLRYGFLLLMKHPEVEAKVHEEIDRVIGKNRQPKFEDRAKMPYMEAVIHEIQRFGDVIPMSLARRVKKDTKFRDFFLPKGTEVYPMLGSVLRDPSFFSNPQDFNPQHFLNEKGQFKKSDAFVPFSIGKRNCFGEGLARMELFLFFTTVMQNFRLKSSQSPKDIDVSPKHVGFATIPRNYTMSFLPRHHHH

human CYP2A6 [2] = biological target: T1, human CYP2A6; test: Coumarin metabolism assay; settings: for α (mixed inhibition) 2A6: mixed model inhibition
human CYP2A13 [3] = biological target: T2, human CYP2A13 (Homo sapiens, UniProt Q16696); test: Spectral ligand binding assay; settings: for Spectral shift type 2A13: UV/Vis difference spectra; for Kd: Kd 2A13, spectral titration, ≥ = minimal Kd value
T2 sequence (Q16696 25-494): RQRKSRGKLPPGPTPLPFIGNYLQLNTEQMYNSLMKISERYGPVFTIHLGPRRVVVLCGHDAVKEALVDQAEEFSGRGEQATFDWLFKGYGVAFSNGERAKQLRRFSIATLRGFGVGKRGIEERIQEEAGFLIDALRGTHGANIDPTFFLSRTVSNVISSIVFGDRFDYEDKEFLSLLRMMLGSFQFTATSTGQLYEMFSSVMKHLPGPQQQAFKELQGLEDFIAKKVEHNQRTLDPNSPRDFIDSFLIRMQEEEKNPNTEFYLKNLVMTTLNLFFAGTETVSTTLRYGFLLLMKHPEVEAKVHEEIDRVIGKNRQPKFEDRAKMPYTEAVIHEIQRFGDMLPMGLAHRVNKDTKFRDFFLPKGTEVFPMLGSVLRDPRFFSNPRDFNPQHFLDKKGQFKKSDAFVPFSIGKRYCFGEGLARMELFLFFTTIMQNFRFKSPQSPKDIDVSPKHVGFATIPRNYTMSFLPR

human CYP2A13 [4] = biological target: T3, human CYP2A13 (Homo sapiens, UniProt Q16696); test: Coumarin metabolism assay
T3 sequence (Q16696 with tags, fused parts or gaps limits assumed): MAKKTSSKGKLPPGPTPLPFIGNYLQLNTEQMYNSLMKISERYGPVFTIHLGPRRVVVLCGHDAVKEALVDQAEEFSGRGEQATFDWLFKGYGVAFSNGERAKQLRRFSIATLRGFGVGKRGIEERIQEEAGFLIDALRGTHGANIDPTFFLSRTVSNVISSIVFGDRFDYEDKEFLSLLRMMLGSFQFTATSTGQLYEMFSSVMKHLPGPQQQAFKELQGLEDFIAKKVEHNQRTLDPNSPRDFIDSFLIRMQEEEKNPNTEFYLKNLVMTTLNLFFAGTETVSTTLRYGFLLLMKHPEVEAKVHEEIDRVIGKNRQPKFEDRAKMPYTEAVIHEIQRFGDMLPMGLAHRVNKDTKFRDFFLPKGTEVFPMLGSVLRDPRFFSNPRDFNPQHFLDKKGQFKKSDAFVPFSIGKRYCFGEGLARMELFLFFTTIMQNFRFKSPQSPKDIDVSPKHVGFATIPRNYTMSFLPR

CYP2A6 / CYP2A13 [5] = test: Coumarin metabolism assay; settings: human
CYP2A6 / CYP2A13 [6] = test: Spectral ligand binding assay; parameters: species or system human; settings: human
[7] = pH 7.4, probe coumarin (7-hydroxylation), Selectivity Ki (2A6)/ Ki (2A13), ratio of the CYP2A6 value to the CYP2A13 value
[8] = Selectivity Kd (2A6)/ Kd (2A13), ratio of the CYP2A6 value to the CYP2A13 value
[9] = read-out: Kd 2A6, spectral titration
[10] = read-out: Ki 2A6, coumarin substrate
[11] = read-out: Ki 2A13, coumarin substrate

Molecule	Kd 2A6 (human CYP2A6 [1]; spectral titration)	Ki (human CYP2A6 [2]) [µM]	Spectral shift type 2A13 (human CYP2A13 [3])	Ki (human CYP2A13 [4]) [µM]	selectivity ratio at 10 min (CYP2A6 / CYP2A13 [5]; [7])	Kd (human CYP2A13 [3])	selectivity ratio at 10 min (CYP2A6 / CYP2A13 [5]; pH 7.4)	Kd (human CYP2A6 [1]; Kd 2A6, spectral titration) [µM]	Spectral shift type 2A6 (human CYP2A6 [1])	Mode of inhibition 2A6 (human CYP2A6 [2]; coumarin substrate)	α (mixed inhibition) 2A6 (human CYP2A6 [2]; coumarin substrate)	selectivity ratio (CYP2A6 / CYP2A13 [6])	selectivity ratio (CYP2A6 / CYP2A13 [6]; [8])	Mode of inhibition 2A13 (human CYP2A13 [4]; coumarin substrate)	α (mixed inhibition) 2A13 (human CYP2A13 [4]; coumarin substrate, mixed model inhibition)	Kd (human CYP2A6 [1]; [9]) [µM]	Ki (human CYP2A6 [2]; [10]) [µM]	Ki (human CYP2A13 [4]; [11]) [µM]
Fc1ccccc1CN1CCOCC1 [Compound 2, 4-(2-fluorobenzyl)morpholine]	no spectral shift; also recorded: No ^** Spectral Shift	≥ 1000	I	379	≥ 2.6													
Brc1ccccc1CN1CCOCC1 [Compound 4, 4-(2-bromobenzyl)morpholine]	No ^** Spectral Shift	≥ 1000	I	17.6 ± 3.1		6.3 µM	≥ 56.8											
Cc1ccccc1CN1CCOCC1 [Compound 5, 4-(2-methylbenzyl)morpholine]	No ^** Spectral Shift	≥ 1000	I	66.9	≥ 14.9	18.5 µM												
CCc1ccccc1CN1CCOCC1 [Compound 6, 4-(2-ethylbenzyl)morpholine]		818	I	16.9		4.5 µM	48.4	≥ 575	I	mixed inhibition	13.3	≥ 128						
Clc1cccc(Cl)c1CN1CCOCC1 [Compound 8, 4-(2,6-dichlorobenzyl)morpholine]		237	I	18.1	13.7	1.3 µM		≥ 522	I				> 400					
Clc1cccc(CN2CCOCC2)c1 [Compound 10, 4-(3-chlorobenzyl)morpholine]		352	I	260	1.4	69.1 ± 30.2 µM		≥ 400	I [drawing 12] II				≥ 5.8					
Clc1ccc(CN2CCOCC2)cc1 [Compound 11, 4-(4-chlorobenzyl)morpholine]		448	I	458	1	168 µM and 167 µM		≥ 245	I				≥ 1.5					
CC1CN(Cc2cccc(Cl)c2Cl)CC(C)O1 (stereo not shown) [Compound 14, 4-(2,3-dichlorobenzyl)-2,6-dimethylmorpholine]		≥ 1000	I	646	≥ 2.6	37 µM		≥ 462	I				≥ 12.5	mixed inhibition	19.6			
c1ccc2c(CN3CCOCC3)cccc2c1 [Compound 15, 4-(naphthalen-1-ylmethyl)morpholine]	Weak Spectral Shift	500	I	219 ± 18.7	2.3	41.8 µM and 121 µM				mixed inhibition	3.1							
CN1CCN(Cc2ccccc2Cl)CC1 [Compound 21, 1-(2-chlorobenzyl)-4-methylpiperazine]	weak or no spectral shifts; also recorded: Weak Spectral Shift	≥ 1000	I	≥ 1000		306 µM												
CN1CCN(Cc2c(Cl)cccc2Cl)CC1 [Compound 22, 1-(2,6-dichlorobenzyl)-4-methylpiperazine]	weak or no spectral shifts; also recorded: No Spectral Shift	≥ 1000	I	≥ 1000		≥ 362 µM												
Clc1ccccc1CCN1CCOCC1 [Compound 24, 4-(2-chlorophenethyl)morpholine]																≥ 604	≥ 1000	604
Benzylmorpholine [Compound 1]									I [drawing 2] II	mixed inhibition	3.4					≥ 300	675	477
